Measurements: US20160152560A1, “Compounds for the treatment of hypertension and hypertensive end stage renal disease” (THE REGENTS OF THE UNIVERSITY OF CALIFORNIA, priority 2013, published 2016)
“And” between values parts separate entries of the source, which are not always exact repeats. Equal entries are not always repeated. Where two headings read alike, the source gives them in different places. Ends that are not written are not given here.

Legend:
[1] = system: T1, nicotinic cholinergic receptor; experiment: Nicotine-stimulated [3H]-norepinephrine (catecholamine) secretion from PC12 cells; format: cell-based, rat; details: for IC50 / Hill slope (cooperativity of inhibition of secretion): nicotine 30 μM, PC12 cells; for Hill slope (cooperativity of inhibition of secretion): Hill plot; for Norepinephrine secretion at ascending nicotine doses (noncompetitive inhibition): nicotine 10 to 1000 μM, PC12 cells (FIG. 3C); for Inhibition of catecholamine release triggered by nicotine: nicotine stimulation, PC12 cells (FIG. 3B)
T1 construct: nicotine 30 μM, PC12 cells, 30 min; other: Hill plot, nicotine 30 μM, PC12 cells; other: screening at 0.5 μM and 5 μM doses; nicotine 30 μM, PC12 cells; other:
Description: (§1) Rat PC12 pheochromocytoma cells were grown at 37° C. with 6% CO2, in 12-well plates, in Dulbecco's modified Eagle's medium (high glucose) supplemented with fetal bovine serum, horse serum, and penicillin/streptomycin. Secretion assays were performed as described previously (N. Biswas, et al., Endocrinology, 149 (2008), 749-757). Cells were labeled for 3 h with 1 μCi/mL of [^3H]-norepinephrine (NET678, Perkin-Elmer, Waltham, Mass.), then washed three times with basal medium and one time with secretion buffer. Subsequently, the cells were incubated for 30 min with or without the agonist nicotine (30 μM), in the presence or absence of test compounds (0.5 μM or 5 μM). For IC50 determinations, secretion assays were performed in the presence of increasing concentrations of test compounds. The extracellular secretion medium and the cell lysates were collected for [^3H]-norepinephrine measurement by liquid scintillation counting. Results were expressed as percent secretion:
(§2) % secretion=[amount released/(amount released+amount in lysate)]×100.
(§3) Net secretion was calculated as agonist-stimulated release minus basal release. To establish the specificity of secretory inhibition by test compounds, in some experiments catecholamine release was triggered with other classes of secretagogues that bypass the nicotinic cholinergic pathway: membrane depolarization (55 mM KCl); P2x purinergic receptor stimulation (100 μM ATP); K^+ (repolarizing) channel blockade (2 mM BaCl2 in the absence of extracellular Ca^2+); or a Ca^2+ ionophore (1 μM ionomycin).
Actions of test compounds were compared with the classical noncompetitive nicotinic antagonist chlorisondamine, wherein labeled cells were incubated with different doses of nicotine in the presence or absence of peptide antagonists or chlorisondamine (5 μM).

nicotinic receptors = experiment: Nicotine-induced 45Ca2+ uptake by PC12 cells; format: cell-based, rat; details: nicotine 30 μM, read-out: IC50 for inhibition of nicotine-induced 45Ca2+ uptake
Description: Nicotinic cholinergic secretory responses in the chromaffin cells are triggered by an early influx of calcium. To test the ability of the compounds to interfere at this early stage of signal transduction, PC12 cells were stimulated with nicotine (30 μM) in the presence or absence of test compounds and agonist-mediated uptake of ^45Ca^2+ was measured. ^45Ca^2+ uptake was performed as described previously with minor modifications S. K. Mahata et al., J. Clin. Invest., 100 (1997), 1623-1633). Briefly, PC12 cells were grown on poly-L-lysine coated 6-well culture dishes, and were washed with 1 mL release buffer (150 mmol/L NaCl, 5 mmol/L KCl, 2 mmol/L CaCl2, 10 mmol/L Hepes buffer, pH 7.4) every 15 minutes for 1 hour at 37° C. Cells were then pre-incubated for 1 min in release buffer in the presence or absence of test compounds. Cells were incubated for 2 min with 1 mL of Ca^2+-free release buffer containing 2 μCi of ^45Ca^2+ (catalog number NEZ01300, Perkin-Elmer), 30 μM nicotine in the presence or absence of test compounds. Thereafter, Ca^2+ uptake was terminated by the addition of 2 mL of ice-cold Ca^2+-free secretion medium containing 2 mmol/L EGTA and 1 mmol/L LaCl3, and further washed six times with 2 mL of the same buffer. Cell lysis buffer (secretion medium containing 0.1% Triton X-100, 1 mL) was then added, and the lysate was collected for liquid scintillation counting.

PC12 cells [2] = experiment: Basal [3H]-norepinephrine secretion from PC12 cells; format: cell-based, rat; details: no agonist
Description: as §1, §2
The compounds were also tested to determine their effect on basal secretion.

PC12 cells [3] = experiment: Catecholamine release triggered by secretagogues that bypass the nicotinic cholinergic pathway (KCl, ATP, BaCl2, ionomycin); format: cell-based, rat; details: 55 mM KCl, 100 μM ATP, 2 mM BaCl2, 1 μM ionomycin
Description: as §3
In addition to nicotinic-cholinergic stimulation, several secretagogues that act at later stages in the secretory pathway than the nicotinic receptor were tested, including membrane depolarization (by KCl), or blockade of repolarization (by Ba^2+). In addition, secretagogues that act on different targets from the nicotinic-cholinergic receptor, such as P2x (ATP) or artificial Ca^2+ pores (Ca^2+ ionophore ionomycin) were used.

[4] = system: BPH/2J polygenic hypertensive mice; experiment: Telemetric continuous intra-arterial blood pressure and heart rate in hypertensive BPH/2J mice; format: in vivo, mouse; details: 5 μg/g body weight i.p.
From the text: Telemetric measurement of blood pressure (BP) in conscious hypertensive mice (polygenic hypertensive BPH/2J mouse model; F. A. Wright et al., Hypertension, 34 (1999), p. 625-630) was achieved using a Data Sciences International (DSI; Transoma Medical) Physiol Tel telemetry system, implanting a catheter coupled to a TA11PA-C20 (DSI) transmitter, as described (N. R. Mahapatra et al., J. Clin. Invest., 115 (2005), 1942-1952). The animals and implants were left to stabilize for ten days after surgery. BPH/2J polygenic hypertensive mice (n=7/group) were then treated with test compound (5 μg/g body weight, intra-peritoneal; or vehicle). BP and heart rate (HR) were measured continuously over 24 hours, before and after compound administration.

[5] = target: nicotinic cholinergic receptor; details: Mahata et al., Mol. Pharmacol. 66 (2004); read-out: IC50 of human catestatin, previously measured; cited from earlier work
[6] = Table 1, 30 min, read-out: IC50: concentration that achieves 50% inhibition of secretion
[7] = increasing compound doses, read-out: IC50 from secretion assays with increasing compound doses

## Nc1nc(N)c2nc(CNc3ccc(C(=O)N[C@@H](CCC(=O)O)C(=O)O)cc3)cnc2n1 [TKO-10-1]
[1]; [6]
  IC50: > 5000 nM

## O=C(Nc1cc(C2=NCCN2)cc(C2=NCCN2)c1)Nc1cc(C2=NCCN2)cc(C2=NCCN2)c1 [TKO-10-2]
[1]; [6]
  IC50: > 5000 nM

## C/N=C(\NC)c1ccc(/N=C(\NC)c2ccc(/C(=N/c3ccc(/C(=N/C)NC)cc3)NC)cc2)cc1 [TKO-10-3]
[1]; [6]
  IC50: 1700 nM

## C/N=C(/NC)c1ccc(NC(=O)Nc2cccc(NC(=O)Nc3ccc(/C(=N\C)NC)cc3)c2)cc1 [TKO-10-4]
[1]; [6]
  IC50: 230 nM
[1]; [7]
  IC50: 41 nM
Nicotinic receptors
  IC50: ~70 nM and 70 nM

## CNC(=O)c1cc(NC(=O)Nc2cccc(C3=NCCN3)c2)cc(NC(=O)Nc2cccc(C3=NCCN3)c2)c1 [TKO-10-5]
PC12 cells [2]
  Effect on basal secretion (~5% 3H-NE release): remained unaltered
PC12 cells [3]
  Inhibition of catecholamine release caused by agents acting distal to the receptor or on other receptor classes: not when secretion was caused by agents acting distal to the receptor, or on other receptor classes
[1]
  Hill slope (cooperativity of inhibition of secretion): near unity
  Inhibition of catecholamine release triggered by nicotine: significantly inhibited catecholamine release
[1]; [6]
  IC50: 1100 nM
[1]; [7]
  IC50: 1000 nM
[1]; 30 min
  Norepinephrine secretion at ascending nicotine doses (noncompetitive inhibition): reduced norepinephrine secretion significantly
Nicotinic receptors
  IC50: ~100 nM and 100 nM

## CNC(=N)c1ccc(NC(=N)c2ccc(Cl)c(C(=N)Nc3ccc(C(=N)NC)cc3)c2)cc1 [TKO-10-6]
[1]; [6]
  IC50: 1800 nM

## C/N=C(/NC)c1ccc(NC(=O)Nc2ccc(C)c(NC(=O)Nc3ccc(/C(=N\C)NC)cc3)c2)cc1 [TKO-10-7]
[1]; [6]
  IC50: 290 nM
[1]; [7]
  IC50: 24 nM
Nicotinic receptors
  IC50: ~100 nM and 100 nM

## CCN/C(=N/c1cccc(C2=NCCN2)c1)c1ccc(/C(=N\c2cccc(C3=NCCN3)c2)NCC)cc1 [TKO-10-8]
[1]; [6]
  IC50: 1600 nM

## CNC(=O)c1ccc(NC(=O)Nc2cccc(C3=NCCN3)c2)cc1NC(=O)Nc1cccc(C2=NCCN2)c1 [TKO-10-9]
[1]; [6]
  IC50: 1400 nM

## Nc1nc(N)c(-c2ccc(Cl)cc2)c(CCc2ccc(NC(=O)CBr)cc2)n1 [TKO-10-10]
[1]; [6]
  IC50: 1500 nM

## Cc1ccnc(NS(=O)(=O)c2ccc(/N=N/c3cc(/N=N/c4ccccc4)c(N)nc3N)cc2)n1 [TKO-10-11]
[1]; [6]
  IC50: > 5000 nM

## Nc1nc(N)c(/N=N/c2ccc(S(=O)(=O)Nc3ncccn3)cc2)cc1/N=N/c1ccccc1 [TKO-10-12]
[1]; [6]
  IC50: 2000 nM

## Cc1cc(NC(=O)NCc2ccc(N3C(N)=NC(N)=NC3(C)C)cc2)ccc1S(=O)(=O)F [TKO-10-13]
[1]; [6]
  IC50: 870 nM

## CCN(CC)CC(O)CNc1cc(C)nc(NC(=N)Nc2ccc(Cl)c(Cl)c2)n1 (stereo not drawn) [TKO-10-14]
PC12 cells [2]
  Effect on basal secretion (~5% 3H-NE release): remained unaltered
PC12 cells [3]
  Inhibition of catecholamine release caused by agents acting distal to the receptor or on other receptor classes: not when secretion was caused by agents acting distal to the receptor, or on other receptor classes
[1]; [6]
  IC50: 680 nM
[1]; 30 min
  Norepinephrine secretion at ascending nicotine doses (noncompetitive inhibition): reduced norepinephrine secretion significantly
[1]
  Inhibition of catecholamine release triggered by nicotine: significantly inhibited catecholamine release

## CC1(C)N=C(N)N=C(N)N1c1cccc(CNC(=O)Nc2ccccc2)c1 [TKO-10-15]
[1]; [6]
  IC50: > 5000 nM

## CCN1CCC(CNc2cc(C)nc(NC(=N)Nc3ccc(Cl)c(Cl)c3)n2)C1 (stereo not drawn) [TKO-10-16]
[1]; [6]
  IC50: 450 nM

## CCN1CCC(CNc2cc(C)nc(NC(=N)Nc3cc(Cl)cc(Cl)c3)n2)C1 (stereo not drawn) [TKO-10-17]
[1]; [6]
  IC50: 1900 nM

## C/C(=N\NC(=N)N)c1cccc(NC(=S)Nc2cccc(/C(C)=N/NC(=N)N)c2)c1 [TKO-10-18]
[4]
  Fall in heart rate (HR): ~180 beats/min
  Reflex tachycardia after fall in BP: not accompanied by reflex tachycardia
  Time by which BP declines were apparent: 10 to 30 min
  Time for which BP declines were maintained: ≤ 60 min
[4]; initial DBP 104.9±0.1 mmHg
  Reduction in DBP: ~25 mmHg
[4]; initial SBP 145.0±0.6 mmHg
  Reduction in SBP: ~33 mmHg
[1]
  Hill slope (cooperativity of inhibition of secretion): near unity
[1]; [6]
  IC50: 180 nM
[1]; [7]
  IC50: 17 nM
Nicotinic receptors
  IC50: ~90 nM and 90 nM

## Nc1ccc(CCCCc2nc(N)nc(N)c2-c2ccc(Cl)c(Cl)c2)cc1 [TKO-10-19]
[1]; [6]
  IC50: 2600 nM

## CCN1CCCC(CNc2cc(C)nc(NC(=N)Nc3ccc(Cl)c(Cl)c3)n2)C1 (stereo not drawn) [TKO-10-20]
[1]; [6]
  IC50: 1100 nM

## SSMKLSFRARAYGFRGPGPQL [Human catestatin]
[5]
  IC50: 820 nM
